ChEMBL document CHEMBL3351732, “Potent bisimidazole-based HCV NS5A inhibitors bearing annulated tricyclic motifs” (Bioorg Med Chem Lett, 2014)

How the values were obtained:
[1] = AUC(last) in Sprague-Dawley rat at 250 mg/kg, po; type: ADME, organism-based; set-up: time 0 - last, dose 250 mg/kg, route oral; details: plasma
[2] = AUC(last) in Sprague-Dawley rat at 5 mg/kg, po formulated with 5%MC, 95% saline; type: ADME, organism-based; set-up: time 0 - last, dose 5 mg/kg, route oral; details: plasma
[3] = AUC(last) in beagle dog at 250 mg/kg, po; type: ADME, organism-based, Canis lupus familiaris; set-up: dose 250 mg/kg, route oral, time 0 - last; details: plasma
[4] = Tmax in beagle dog at 5 mg/kg, po; type: ADME, organism-based, Canis lupus familiaris; set-up: dose 5 mg/kg, route oral; details: in vivo
[5] = Cmax in cynomolgus monkey at 250 mg/kg, po; type: ADME, organism-based, Macaca fascicularis; set-up: dose 250 mg/kg, route oral; details: in vivo
[6] = tested on: Hepatitis C virus; assay: Antiviral activity against HCV genotype 1b infected in human HuH7 cells by luciferase reporter gene assay; type: functional, cell-based, Hepacivirus hominis; details: Huh-7
[7] = Cmax in beagle dog at 250 mg/kg, po; type: ADME, organism-based, Canis lupus familiaris; set-up: dose 250 mg/kg, route oral; details: in vivo
[8] = AUC(last) in cynomolgus monkey at 250 mg/kg, po; type: ADME, organism-based, Macaca fascicularis; set-up: time 0 - last, dose 250 mg/kg, route oral; details: plasma
[9] = Cmax in beagle dog at 5 mg/kg, po; type: ADME, organism-based, Canis lupus familiaris; set-up: dose 5 mg/kg, route oral; details: in vivo
[10] = Tmax in Sprague-Dawley rat at 250 mg/kg, po; type: ADME, organism-based; set-up: dose 250 mg/kg, route oral; details: in vivo
[11] = Tmax in beagle dog at 75 mg/kg, po; type: ADME, organism-based, Canis lupus familiaris; set-up: dose 75 mg/kg, route oral; details: in vivo
[12] = Tmax in cynomolgus monkey at 75 mg/kg, po; type: ADME, organism-based, Macaca fascicularis; set-up: dose 75 mg/kg, route oral; details: in vivo
[13] = tested on: Hepatitis C virus; assay: Antiviral activity against HCV genotype 6a infected in human HuH7 cells by luciferase reporter gene assay; type: functional, cell-based, Hepacivirus hominis; details: Huh-7
[14] = Cmax in Sprague-Dawley rat at 5 mg/kg, po; type: ADME, organism-based; set-up: dose 5 mg/kg, route oral; details: in vivo
[15] = Oral bioavailability in Sprague-Dawley rat at 5 mg/kg; type: ADME, organism-based; details: in vivo
[16] = Clearance in beagle dog at 1 mg/kg, iv; type: ADME, organism-based, Canis lupus familiaris; set-up: dose 1 mg/kg, route intravenous; details: in vivo
[17] = AUC(last) in cynomolgus monkey at 1 mg/kg, iv; type: ADME, organism-based, Macaca fascicularis; set-up: time 0 - last, dose 1 mg/kg, route intravenous; details: plasma
[18] = AUC(last) in Sprague-Dawley rat at 1 mg/kg, iv; type: ADME, organism-based, Plasma; set-up: time 0 - last, dose 1 mg/kg, route intravenous; details: Sprague-Dawley, plasma
[19] = AUC(last) in beagle dog at 1 mg/kg, iv; type: ADME, organism-based, Canis lupus familiaris; set-up: time 0 - last, dose 1 mg/kg, route intravenous; details: plasma
[20] = Clearance in Sprague-Dawley rat at 1 mg/kg, iv; type: ADME, organism-based; set-up: dose 1 mg/kg, route intravenous; details: Sprague-Dawley, in vivo
[21] = Volume of distribution at steady state in cynomolgus monkey at 1 mg/kg, iv; type: ADME, organism-based, Macaca fascicularis; set-up: dose 1 mg/kg, route intravenous; details: in vivo, read-out: Vdss
[22] = tested on: Hepatitis C virus; assay: Antiviral activity against HCV genotype 5a infected in human HuH7 cells by luciferase reporter gene assay; type: functional, cell-based, Hepacivirus hominis; details: Huh-7
[23] = Oral bioavailability in cynomolgus monkey at 5 mg/kg; type: ADME, organism-based, Macaca fascicularis; details: in vivo
[24] = Tmax in cynomolgus monkey at 5 mg/kg, po; type: ADME, organism-based, Macaca fascicularis; set-up: dose 5 mg/kg, route oral; details: in vivo
[25] = Oral bioavailability in Sprague-Dawley rat at 5 mg/kg formulated with 5%MC, 95% saline; type: ADME, organism-based; details: in vivo
[26] = AUC(last) in Sprague-Dawley rat at 5 mg/kg, po; type: ADME, organism-based; set-up: dose 5 mg/kg, route oral, time 0 - last; details: plasma
[27] = Cmax in Sprague-Dawley rat at 5 mg/kg, po formulated with 5%MC, 95% saline; type: ADME, organism-based; set-up: dose 5 mg/kg, route oral; details: in vivo
[28] = AUC(last) in beagle dog at 5 mg/kg, po; type: ADME, organism-based, Canis lupus familiaris; set-up: time 0 - last, dose 5 mg/kg, route oral; details: plasma
[29] = Half life in cynomolgus monkey at 1 mg/kg, iv; type: ADME, organism-based, Macaca fascicularis; set-up: dose 1 mg/kg, route intravenous; details: in vivo
[30] = AUC(last) in cynomolgus monkey at 5 mg/kg, po; type: ADME, organism-based, Macaca fascicularis; set-up: time 0 - last, dose 5 mg/kg, route oral; details: plasma
[31] = Cmax in cynomolgus monkey at 75 mg/kg, po; type: ADME, organism-based, Macaca fascicularis; set-up: dose 75 mg/kg, route oral; details: in vivo
[32] = AUC(last) in Sprague-Dawley rat at 75 mg/kg, po; type: ADME, organism-based; set-up: time 0 - last, dose 75 mg/kg, route oral; details: plasma
[33] = Tmax in Sprague-Dawley rat at 75 mg/kg, po; type: ADME, organism-based; set-up: dose 75 mg/kg, route oral; details: in vivo
[34] = Cmax in cynomolgus monkey at 5 mg/kg, po; type: ADME, organism-based, Macaca fascicularis; set-up: dose 5 mg/kg, route oral; details: in vivo
[35] = Plasma concentration in Sprague-Dawley rat at 5 mg/kg, po measured 4 hrs post dose; type: ADME, organism-based; set-up: dose 5 mg/kg, route oral
[36] = Half life in beagle dog at 1 mg/kg, iv; type: ADME, organism-based, Canis lupus familiaris; set-up: dose 1 mg/kg, route intravenous; details: in vivo
[37] = Oral bioavailability in beagle dog at 5 mg/kg; type: ADME, organism-based, Canis lupus familiaris; details: in vivo
[38] = Drug level in Sprague-Dawley rat liver at 5 mg/kg, po measured 4 hrs post dose; type: ADME, organism-based; set-up: dose 5 mg/kg, route oral; details: read-out: Drug uptake
[39] = Tmax in Sprague-Dawley rat at 5 mg/kg, po formulated with 5%MC, 95% saline; type: ADME, organism-based; set-up: dose 5 mg/kg, route oral; details: in vivo
[40] = Cmax in Sprague-Dawley rat at 75 mg/kg, po; type: ADME, organism-based; set-up: dose 75 mg/kg, route oral; details: in vivo
[41] = tested on: Hepatitis C virus; assay: Antiviral activity against HCV genotype 4a infected in human HuH7 cells by luciferase reporter gene assay; type: functional, cell-based, Hepacivirus hominis; details: Huh-7
[42] = Volume of distribution at steady state in Sprague-Dawley rat at 1 mg/kg, iv; type: ADME, organism-based; set-up: dose 1 mg/kg, route intravenous; details: in vivo, read-out: Vdss
[43] = Cmax in Sprague-Dawley rat at 250 mg/kg, po; type: ADME, organism-based; set-up: dose 250 mg/kg, route oral; details: in vivo
[44] = Tmax in Sprague-Dawley rat at 5 mg/kg, po; type: ADME, organism-based; set-up: dose 5 mg/kg, route oral; details: in vivo
[45] = Tmax in beagle dog at 250 mg/kg, po; type: ADME, organism-based, Canis lupus familiaris; set-up: dose 250 mg/kg, route oral; details: in vivo
[46] = Cmax in beagle dog at 75 mg/kg, po; type: ADME, organism-based, Canis lupus familiaris; set-up: dose 75 mg/kg, route oral; details: in vivo
[47] = tested on: Hepatitis C virus; assay: Antiviral activity against HCV genotype 3a infected in human HuH7 cells by luciferase reporter gene assay; type: functional, cell-based, Hepacivirus hominis; details: Huh-7
[48] = Tmax in cynomolgus monkey at 250 mg/kg, po; type: ADME, organism-based, Macaca fascicularis; set-up: dose 250 mg/kg, route oral; details: in vivo
[49] = Clearance in cynomolgus monkey at 1 mg/kg, iv; type: ADME, organism-based, Macaca fascicularis; set-up: dose 1 mg/kg, route intravenous; details: in vivo
[50] = AUC(last) in cynomolgus monkey at 75 mg/kg, po; type: ADME, organism-based, Macaca fascicularis; set-up: time 0 - last, dose 75 mg/kg, route oral; details: plasma
[51] = tested on: Hepatitis C virus; assay: Antiviral activity against HCV genotype 1a infected in human HuH7 cells by luciferase reporter gene assay; type: functional, cell-based, Hepacivirus hominis; details: subtype 1a, Huh-7
[52] = AUC(last) in beagle dog at 75 mg/kg, po; type: ADME, organism-based, Canis lupus familiaris; set-up: time 0 - last, dose 75 mg/kg, route oral; details: plasma
[53] = Volume of distribution at steady state in beagle dog at 1 mg/kg, iv; type: ADME, organism-based, Canis lupus familiaris; set-up: dose 1 mg/kg, route intravenous; details: in vivo, read-out: Vdss
[54] = Half life in Sprague-Dawley rat at 1 mg/kg, iv; type: ADME, organism-based; set-up: dose 1 mg/kg, route intravenous; details: in vivo

AUC(0-t) [1]: 187 µg·h/mL
AUC(0-t) [2]: 4120 ng·h/mL
AUC(0-t) [3]: 192 µg·h/mL
Tmax [4]: 1 h
Cmax [5]: 8100 ng/mL
EC50 [6]: 0.011 nM
Cmax [7]: 12200 ng/mL
AUC(0-t) [8]: 46600 ng·h/mL
Cmax [9]: 2760 ng/mL
Tmax [10]: 3.33 h
Tmax [11]: 4 h
Tmax [12]: 3 h
EC50 [13]: 0.062 nM
Cmax [14]: 874 ng/mL
bioavailability [15]: 112%
clearance [16]: 2.67 mL/min/kg
AUC(0-t) [17]: 2380 ng·h/mL
AUC(0-t) [18]: 926 ng·h/mL
AUC(0-t) [19]: 6180 ng·h/mL
clearance [20]: 17.8 mL/min/kg
Vd [21]: 1.33 L/kg
EC50 [22]: 0.017 nM
bioavailability [23]: 28.4%
Tmax [24]: 3 h
bioavailability [25]: 88.9%
AUC(0-t) [26]: 5250 ng·h/mL
Cmax [27]: 761 ng/mL
AUC(0-t) [28]: 16500 ng·h/mL
half-life [29]: 214 min
AUC(0-t) [30]: 3370 ng·h/mL
Cmax [31]: 3600 ng/mL
AUC(0-t) [32]: 137 µg·h/mL
Tmax [33]: 4 h
Cmax [34]: 486 ng/mL
concentration at 4 h [35]: 833 ng/mL
half-life [36]: 226 min
bioavailability [37]: 53.4%
concentration at 4 h [38]: 2610 ng/mL
Tmax [39]: 30 min
Cmax [40]: 12400 ng/mL
EC50 [41]: 0.025 nM
Vd [42]: 1.8 L/kg
Cmax [43]: 16200 ng/mL
Tmax [44]: 3 h
Tmax [45]: 5 h
Cmax [46]: 6400 ng/mL
EC50 [47]: 0.29 nM
Tmax [48]: 4 h
clearance [49]: 7 mL/min/kg
AUC(0-t) [50]: 17800 ng·h/mL
EC50 [51]: 0.073 nM
AUC(0-t) [52]: 83000 ng·h/mL
Vd [53]: 0.74 L/kg
half-life [54]: 84.6 min
Compound: COC(=O)N[C@H](C(=O)N1CCC[C@H]1c1ncc(-c2ccc3c(c2)Oc2ccc(-c4cnc([C@@H]5CCCN5C(=O)[C@@H](NC(=O)OC)C(C)C)[nH]4)cc2C3(C)C)[nH]1)C(C)C
